Data: patent US9868720B2 (Genentech, Inc., priority 2013, dated 2018)

Molecular target: DLK kinase (N-terminally GST-tagged DLK, catalytic domain amino acid 1-520) (Homo sapiens (Human), UniProt Q12852)
Assay: DLK TR-FRET assay
Type: biochemical
Settings: 30 μM ATP, MKK4 K131M substrate, read-out: DLK HTRF (Ki)
Method: DLK TR-FRET assay: DLK kinase reactions (20 μL) containing 5 nM N-terminally GST-tagged DLK (catalytic domain amino acid 1-520) (Carna Bioscience), 40 nM N-terminally HIS-tagged MKK4 K131M substrate, and 30 μM ATP in kinase reaction buffer (50 mM HEPES, pH 7.5, 0.01% Triton X-100, 0.01% Bovine γ-Globulins, 2 mM DTT, 10 mM MgCl2 and 1 mM EGTA), and testing compound 1:3 serial diluted starting at 20 uM were incubated at ambient temperature for 60 minutes in 384 well OptiPlate (Perkin Elmer). To quench kinase reactions and detect phosphorylated MKK4, 15 μL of TR-FRET antibody mixture containing 2 nM anti-phosphorylated MKK4 labeled with Europium cryptate (Cisbio) and 23 nM anti-HIS labeled with D2 (Cisbio) in detection buffer (25 mM Tris pH 7.5, 100 mM NaCl, 100 mM EDTA, 0.01% Tween-20, and 200 mM KF) was added to the reaction mixture. The detection mixture was incubated for 3 hours at ambient temperature and the TR-FRET was detected with an EnVision multilabel plate reader (Perkin-Elmer) using the LANCE/DELFIA Dual Enh label from Perkin-Elmer (excitation filter: UV2 (TRF) 320 and emission filters: APC 665 and Europium 615).

Sequence of DLK kinase (N-terminally GST-tagged DLK, catalytic domain amino acid 1-520) (Q12852 1-520): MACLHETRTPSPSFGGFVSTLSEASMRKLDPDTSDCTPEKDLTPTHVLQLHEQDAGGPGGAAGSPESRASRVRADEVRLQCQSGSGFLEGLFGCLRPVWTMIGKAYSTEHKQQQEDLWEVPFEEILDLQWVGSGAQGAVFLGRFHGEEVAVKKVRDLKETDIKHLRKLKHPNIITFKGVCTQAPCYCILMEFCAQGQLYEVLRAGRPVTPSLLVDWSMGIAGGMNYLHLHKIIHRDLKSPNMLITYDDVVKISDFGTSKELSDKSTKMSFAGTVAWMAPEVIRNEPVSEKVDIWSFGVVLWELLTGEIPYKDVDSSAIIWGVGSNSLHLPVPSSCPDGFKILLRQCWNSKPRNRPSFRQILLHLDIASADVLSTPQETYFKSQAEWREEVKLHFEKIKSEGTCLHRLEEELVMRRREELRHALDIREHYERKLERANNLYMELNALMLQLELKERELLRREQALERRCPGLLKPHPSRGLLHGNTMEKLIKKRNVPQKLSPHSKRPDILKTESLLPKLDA

| Compound | Ki [nM] |
| --- | --- |
| CC(C)c1nc(Nc2cc(C(F)(F)F)ccn2)cc(C2CCCN(C)C2)n1 (stereo not drawn) [Example 145, [2-Isopropyl-6-(1-methyl-piperidin-3-yl)-pyrimidin-4-yl]-(4-trifluoro-methyl-pyridin-2-yl)-amine] | 141 |
| CC(=O)N1CCC(C#N)(c2cc(Nc3cc(C(F)(F)F)ccn3)nc(N3CCC(F)(F)C3)n2)CC1 [Example 156, 1-Acetyl-4-[2-(3,3-difluoro-pyrrolidin-1-yl)-6-(4-trifluoromethyl-pyridin-2-ylamino)-pyrimidin-4-yl]-piperidine-4-carbonitrile] | 26.9 |
| CN1CCC(c2cc(Nc3cc(C(F)(F)F)ccn3)nc(N3CCC(F)(F)C3)n2)CC1 [Example 160, [2-(3,3-Difluoro-pyrrolidin-1-yl)-6-(1-methyl-piperidin-4-yl)-pyrimidin-4-yl]-(4-trifluoromethyl-pyridin-2-yl)-amine] | 4.42 |
| C[C@@H]1CCCN1c1nc(Nc2cc(C(F)(F)F)ccn2)cc(C2CCN(C)CC2)n1 [Example 169, [6-(1-Methyl-piperidin-4-yl)-2-((R)-2-methyl-pyrrolidin-1-yl)-pyrimidin-4-yl]-(4-trifluoromethyl-pyridin-2-yl)-amine] | 0.4 |
| N#CCC(=O)N1CCCC(c2cc(Nc3cc(C(F)(F)F)ccn3)nc(C3CC3)n2)C1 (stereo not drawn) [Example 173, 3-{3-[2-Cyclopropyl-6-(4-trifluoromethyl-pyridin-2-ylamino)-pyrimidin-4-yl]-piperidin-1-yl}-3-oxo-propionitrile] | 37 |
| CC(=O)N1CCC(c2cc(Nc3cc(C(F)(F)F)ccn3)nc(N3CCC[C@H]3C)n2)CC1 [Example 175, 1-{4-[2-((R)-2-Methyl-pyrrolidin-1-yl)-6-(4-trifluoromethyl-pyridin-2-ylamino)-pyrimidin-4-yl]-piperidin-1-yl}-ethanone] | 2.2 |
| CC1CCCN1c1nc(Nc2cc(C(F)(F)F)ccn2)cc(C2CCN(C(=O)CC#N)CC2)n1 (stereo not drawn) [Example 177, 3-{4-[2-(2-Methyl-pyrrolidin-1-yl)-6-(4-trifluoromethyl-pyridin-2-ylamino)-pyrimidin-4-3yl]-piperidin-1-yl}-3-oxo-propionitrile] | 8.03 |
| O=C(C(F)F)N1CCCC(c2cc(Nc3cc(C(F)(F)F)ccn3)nc(N3CCC(F)(F)C3)n2)C1 (stereo not drawn) [Example 178, 1-{3-[2-(3,3-Difluoro-pyrrolidin-1-yl)-6-(4-trifluoromethyl-pyridin-2-ylamino)-pyrimidin-4-yl]-piperidin-1-yl}-2,2-difluoro-ethanone] | 26.8 |
| CC1CC1C(=O)N1CCC(c2cc(Nc3cc(C(F)(F)F)ccn3)nc(N3CCC(F)(F)C3)n2)C1 (stereo not drawn) [Example 180] | 46.2 |
| O=C(C1CC1)N1CCC(c2cc(Nc3cc(C(F)(F)F)ccn3)nc(N3CCC(F)(F)C3)n2)C1 (stereo not drawn) [Example 184, Cyclopropyl-{3-[2-(3,3-difluoro-pyrrolidin-1-yl)-6-(4-trifluoromethyl-pyridin-2-ylamino)-pyrimidin-4-yl}-pyrrolidin-1-yl}-methanone] | 41.5 |
| CC(C)Cc1nc(Nc2cc(C(F)(F)F)ccn2)cc(C2CCCN(C(=O)C(F)F)C2)n1 (stereo not drawn) [Example 195, 2,2-Difluoro-1-{3-[2-isobutyl-6-(4-trifluoromethyl-pyridin-2-ylamino)-pyrimidin-4-yl]-piperidin-1-yl}-ethanone] | 143 |
| CC(C)(C)c1ccnc(Nc2cc(C3CCNCC3)nc(N3CCC(F)(F)C3)n2)c1 [Example 200, (4-tert-Butyl-pyridin-2-yl)-[2-(3,3-difluoro-pyrrolidin-1-yl)-6-piperidin-4-yl-pyrimidin-4-yl]-amine] | 8.34 |
| FC1(F)CCN(c2nc(Nc3cc(-c4cccs4)ccn3)cc(C3CCNCC3)n2)C1 [Example 201, [2-(3,3-Difluoro-pyrrolidin-1-yl)-6-piperidin-4-yl-pyrimidin-4-yl]-(4-thiophen-2-yl-pyridin-2-yl)-amine] | 3.2 |
| C[C@@H]1CCCN1c1nc(Nc2cc(C3CC3)ccn2)cc(C2CCNCC2)n1 [Example 202, (4-Cyclopropyl-pyridin-2-yl)-[2-((R)-2-methyl-pyrrolidin-1-yl)-6-piperidin-4-yl-pyrimidin-4-yl]-amine] | 0.95 |
| CC1CCCN1c1nc(Nc2cc(C(F)(F)F)ccn2)cc(C2CCN(C(=O)Cn3ccnc3)C2)n1 (stereo not drawn) [Example 204, 2-Imidazol-1-yl-1-{3-[2-(2-methyl-pyrrolidin-1-yl)-6-(4-trifluoromethyl-pyridin-2-ylamino)-pyrimidin-4-yl]-pyrrolidin-1-yl}-ethanone] | 7.69 |
| CC(=O)N1CCC(c2cc(Nc3cc(C(F)(F)F)ccn3)nc(N3CCC(C(F)(F)F)C3)n2)CC1 (stereo not drawn) [Example 206, 1-{4-[6-(4-Trifluoromethyl-pyridin-2-ylamino)-2-(3-trifluoromethyl-pyrrolidin-1-yl)-pyrimidin-4-yl]-piperidin-1-yl}-ethanone] | 43.3 |
| N#CC1(c2cc(Nc3cc(C(F)(F)F)ccn3)nc(Nc3cc(C(F)(F)F)ccn3)n2)CCOCC1 [Example 208, 4-[2,6-Bis-(4-trifluoro-methyl-pyridin-2-ylamino)-pyrimidin-4-yl]-tetrahydro-pyran-4-carbonitrile] | 322 |
| C[C@@H]1CCCN1c1nc(Nc2cc(C(F)(F)F)ccn2)cc(C2(C#N)CCOCC2)n1 [Example 209, 4-[2-((R)-2-Methyl-pyrrolidin-1-yl)-6-(4-trifluoromethyl-pyridin-2-ylamino)-pyrimidin-4-yl]-tetrahydro-pyran-4-carbonitrile] | 76.8 |
| FC(F)(F)c1ccnc(Nc2cc(C3CCOCC3)nc(N3CC4(COC4)C3)n2)c1 [Example 218, [2-(2-Oxa-6-aza-spiro-[3.3]hept-6-yl)-6-(tetrahydro-pyran-4-yl)-pyrimidin-4-yl]-(4-trifluoromethyl-pyridin-2-yl)-amine] | 288 |
| CC(=O)N1CCC(c2cc(Nc3cc(C(F)(F)F)ccn3)nc(N3CC(F)C(F)C3)n2)CC1 (stereo not drawn) [Example 250, 1-{4-[2-(3,4-Difluoro-pyrrolidin-1-yl)-6-(4-trifluoromethyl-pyridin-2-ylamino)-pyrimidin-4-yl]-piperidin-1-yl}-ethanone] | 26.7 |
| FC(F)(F)c1ccnc(Nc2cc(C3CCOCC3)nc(N3C4CCC3COC4)n2)c1 [Example 251, [2-(3-Oxa-8-aza-bicyclo-[3.2.1]oct-8-yl)-6-(tetrahydro-pyran-4-yl)-pyrimidin-4-yl]-(4-trifluoro-methyl-pyridin-2-yl)-amine] | 183 |
| FC(F)(F)c1ccnc(Nc2cc(C3CCOCC3)nc(N3CCc4nc[nH]c4C3)n2)c1 [Example 252, [2-(3,4,6,7-Tetrahydro-imidazo[4,5-c]pyridin-5-yl)-6-(tetrahydro-pyran-4-yl)-pyrimidin-4-yl]-(4-trifluoromethyl-pyridin-2-yl)-amine] | 43.5 |
| FC(F)(F)c1ccnc(Nc2cc(C3CCOCC3)nc(N3CCn4ccnc4C3)n2)c1 [Example 253, [2-(5,6-Dihydro-8H-imidazo[1,2-a]pyrazin-7-yl)-6-(tetrahydro-pyran-4-yl)-pyrimidin-4-yl]-(4-trifluoromethyl-pyridin-2-yl)-amine] | 87.7 |
| O=C(C1CN(c2nc(Nc3cc(C(F)(F)F)ccn3)cc(C3CCOCC3)n2)C1)N1CCOCC1 [Example 260, Morpholin-4-yl-{1-[4-(tetrahydro-pyran-4-yl)-6-(4-trifluoromethyl-pyridin-2-ylamino)-pyrimidin-2-yl]-azetidin-3-yl}-methanone] | 347 |
| O=C(C1CCCO1)N1CCC(c2cc(Nc3cc(C(F)(F)F)ccn3)nc(N3CC(F)(F)C3)n2)C1 (stereo not drawn) [Example 265, {3-[2-(3,3-Difluoro-azetidin-1-yl)-6-(4-trifluoro-methyl-pyridin-2-ylamino)-pyrimidin-4-yl]-pyrrolidin-1-yl}-(tetrahydro-furan-2-yl)-methanone] | 159 |
| CN1CCC(c2cc(Nc3cc(C(F)(F)F)ccn3)nc(N3CC4CC3CO4)n2)C1 (stereo not drawn) [Example 274, [6-(1-Methyl-pyrrolidin-3-yl)-2-(2-oxa-5-aza-bicyclo[2.2.1]hept-5-yl)-pyrimidin-4-yl]-(4-trifluoromethyl-pyridin-2-yl)-amine] | 46.3 |
| O=C(C(F)F)N1CCC(c2cc(Nc3cc(C(F)(F)F)ccn3)nc(N3CC4CCC(C3)O4)n2)CC1 [Example 294, 2,2-Difluoro-1{-[2(8-oxa-3-aza-bicyclo[3.2.1]oct-3-yl)-6-(4-trifluoro-methyl-pyridin-2-ylamino)-pyrimidin-4-yl]-piperidin-1-yl}-ethanone] | 104 |
| FC(F)(F)c1ccnc(Nc2cc(C3CCOCC3)nc(N3CCCOCC3)n2)c1 [Example 295, [2-[1,4]Oxazepan-4-yl-6-(tetrahydro-pyran-4-yl)-pyrimidin-4-yl]-(4-trifluoromethyl-pyridin-2-yl)-amine] | 82.7 |
| FC(F)(F)c1ccnc(Nc2cc(C3CCOCC3)nc(N3CC4CCC(C3)O4)n2)c1 [Example 296, [2-(8-Oxa-3-aza-bicyclo-[3.2.1]oct-3-yl)-6-(tetra-hydro-pyran-4-yl)-pyrimidin-4-yl]-(4-trifluoro-methyl-pyridin-2-yl)-amine] | 174 |
| FC1(F)CN(c2nc(Nc3cc(C(F)(F)F)ccn3)cc(C3CCN(CC4CCOCC4)C3)n2)C1 (stereo not drawn) [Example 307, {2-(3,3-Difluoro-azetidin-1-yl)-6-[1-(tetrahydro-pyran-4-ylmethyl)-pyrrolidin-3-yl]-pyrimidin-4-yl}-(4-trifluoromethyl-pyridin-2-yl)-amine] | 31.9 |
